Results as given in BindingDB's records for doi:10.1074/jbc.M110.178376 (University of Pavia, 2011).
Counter-ions that a name gives are not always drawn.

target: Beta-2-microglobulin (Homo sapiens, UniProt P61769); experiment: Fluorescence Assay; conditions: pH 7.4; 37 °C
Source text: Inhibition of wild type beta-m fibrillogenesis tetracycline congeners and was follow by thioflavin fluorescence assay.

Row | SMILES | IC50
1 | C[C@H]1c2cccc(O)c2C(=O)C2C(=O)[C@]3(O)C(=O)C(C(N)=O)C(=O)[C@@H](N(C)C)[C@@H]3[C@@H](O)[C@@H]21 (some centres not stated) | 47 µM
2 | CN(C)[C@H]1C(=O)C(C(N)=O)C(=O)[C@@]2(O)C(=O)C3C(=O)c4c(O)cccc4[C@@](C)(O)C3C(O)C12 (stereo partly drawn) [4-epi-oxytetracycline] | 49 µM
3 | CN(C)[C@@H]1C(=O)C(C(N)=O)C(=O)[C@@]2(O)C(=O)C3C(=O)c4c(O)cccc4[C@@](C)(O)[C@H]3[C@H](O)[C@@H]12 (stereo partly drawn) [(2E,4S,4aR,5S,5aR,6S,12aS)-2-[azanyl(oxidanyl)methylidene]-4-(dimethylamino)-6-methyl-5,6,10,11,12a-pentakis(oxidanyl)-4,4a,5,5a-tetrahydrotetracene-1,3,12-trione] | 63 µM
4 | CN(C)[C@@H]1C(=O)C(C(=O)NCN2CCCC2)C(=O)[C@@]2(O)C(=O)C3C(=O)c4c(O)cccc4[C@@](C)(O)[C@H]3C[C@@H]12 (some centres not stated) [Rolitetracycline] | 136 µM

The remaining molecules from weak to strong by IC50, led by results:

Row | IC50 | SMILES
5 | 136 µM | Cc1c2c(c(O)c3c(O)ccc(Cl)c13)C(=O)[C@]1(O)C(=O)C(C(N)=O)C(=O)[C@@H](N(C)C)[C@@H]1C2 (some centres not stated) [Anhydrochlortetracycline]
6 | 98 µM | C=C1c2c(Cl)ccc(O)c2C(=O)C2C(=O)[C@]3(O)C(=O)C(C(N)=O)C(=O)[C@@H](N(C)C)[C@@H]3[C@@H](O)[C@H]12 (some centres not stated) [Meclocycline]
7 | 69 µM | C=C1c2cccc(O)c2C(=O)C2C(=O)[C@]3(O)C(=O)C(C(N)=O)C(=O)[C@@H](N(C)C)[C@@H]3[C@@H](O)[C@H]12 (stereo partly drawn) [(4S,4aR,5S,5aS,12aS)-4-(dimethylamino)-5,10,12a-trihydroxy-1,3,11,12-tetraketo-6-methylene-4a,5,5a,11a-tetrahydro-4H-tetracene-2-carboxamide;hydrochloride]
